This passage reports EC50 results from patent US9499550B2 (BRISTOL-MYERS SQUIBB COMPANY, priority 2012, dated 2016).

The subject of assay [1] is HCV genotype 1a (H77 strain) replicon in HUH-7 cells. Kind of assay: HCV replicon luciferase reporter assay, genotype 1a. In kind it is cell-based. The conditions noted are these: Hepatitis C virus, Huh-7, 72 h, HCV genotype 1a replicon luciferase, 3 days incubation, read-out: LE_1a (EC50, range). In a few lines: (§1)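 Replicon inhibition for both genotypes was measured as Renilla luciferase signal (EnduRen, 7.5 μM final, 2 h) after 3-day, 37° C exposure of replicon-bearing HUH-7 cells in 4% FCS DMEM, 0.5% DMSO. The 1b construct carries S1179I; the 1a H77 construct carries P1496L and S2204I. Twenty-point, 3-fold dilutions were fitted four-parametrically for EC50, and CC50 was taken from multiplexed Cell Titer-Blue.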
(In general: A replicon is a self-replicating genome or part of one, used to study replication in cells.)

In assay [2] the test system is HCV genotype 1b (Con1) replicon in HUH-7 cells. Kind of assay: HCV replicon luciferase reporter assay, genotype 1b. In kind it is cell-based. The conditions noted are these: Hepatitis C virus, Huh-7, 72 h, HCV genotype 1b replicon luciferase, 3 days incubation, read-out: LE_1b (EC50, range). Put shortly:
as §1

Bounds are passed on as bounds.

In general, EC50 refers to the concentration that produces a half-maximal response. As for `CC(C)Oc1ccc2c(O[C@@H]3C[C@H]4C(=O)N[C@]5(C(=O)NS(=O)(=O)C6CC6)C[C@H]5/C=C\CC[C@H](C)C[C@@H](C)[C@H](NC(=O)OC(C)(C)C(F)(F)F)C(=O)N4C3)nccc2c1` [Compound 5147, 1,1,1-trifluoro-2-methylpropan-2-yl((2R,6S,7R,9S,13aS,14aR,16aS,Z)-14a-((cyclopropylsulfonyl)carbamoyl)-2-((6-isopropoxyisoquinolin-1-yl)oxy)-7,9-dimethyl-5,16-dioxo-1,2,3,5,6,7,8,9,10,11,13a,14,14a,15,16,16a-hexadecahydrocyclopropa[e]pyrrolo[1,2-a][1,4]diazacyclopentadecin-6-yl)carbamate], the EC50 in assay [1] and in assay [2] was 4.82 to 103 nM in each case.
Consider `CC(C)Oc1ccc2c(O[C@@H]3C[C@H]4C(=O)N[C@]5(C(=O)NS(=O)(=O)C6CC6)C[C@H]5/C=C\CC[C@@H](C)C[C@@H](C)[C@H](NC(=O)OC(C)(C)C(F)(F)F)C(=O)N4C3)nccc2c1` [Compound 5148, 1,1,1-trifluoro-2-methylpropan-2-yl((2R,6S,7R,9R,13aS,14aR,16aS,Z)-14a-((cyclopropylsulfonyl)carbamoyl)-2-((6-isopropoxyisoquinolin-1-yl)oxy)-7,9-dimethyl-5,16-dioxo-1,2,3,5,6,7,8,9,10,11,13a,14,14a,15,16,16a-hexadecahydrocyclopropa[e]pyrrolo[1,2-a][1,4]diazacyclopentadecin-6-yl)carbamate], for which the half-maximal effective concentration (EC50) in assay [1] and in assay [2] was below 5.46 nM in each case.
On to `CC(C)Oc1ccc2c(O[C@@H]3C[C@H]4C(=O)N[C@]5(C(=O)NS(=O)(=O)C6CC6)C[C@H]5/C=C\CC[C@H](C)C[C@@H](C)[C@H](NC(=O)O[C@H](C)C(F)(F)F)C(=O)N4C3)nccc2c1` [Compound 5149, (R)-1,1,1-trifluoropropan-2-yl((2R,6S,7R,9S,13aS,14aR,16aS,Z)-14a-((cyclopropylsulfonyl)carbamoyl)-2-((6-isopropoxyisoquinolin-1-yl)oxy)-7,9-dimethyl-5,16-dioxo-1,2,3,5,6,7,8,9,10,11,13a,14,14a,15,16,16a-hexadecahydrocyclopropa[e]pyrrolo[1,2-a][1,4]diazacyclopentadecin-6-yl)carbamate], for which the EC50 was 4.82 to 103 nM in assay [1] and below 5.46 nM in assay [2].
`CC(C)Oc1ccc2c(O[C@@H]3C[C@H]4C(=O)N[C@]5(C(=O)NS(=O)(=O)C6CC6)C[C@H]5/C=C\CC[C@@H](C)C[C@@H](C)[C@H](NC(=O)O[C@H](C)C(F)(F)F)C(=O)N4C3)nccc2c1` [Compound 5150, (R)-1,1,1-trifluoropropan-2-yl((2R,6S,7R,9R,13aS,14aR,16aS,Z)-14a-((cyclopropylsulfonyl)carbamoyl)-2-((6-isopropoxyisoquinolin-1-yl)oxy)-7,9-dimethyl-5,16-dioxo-1,2,3,5,6,7,8,9,10,11,13a,14,14a,15,16,16a-hexadecahydrocyclopropa[e]pyrrolo[1,2-a][1,4]diazacyclopentadecin-6-yl)carbamate]: the 50% effective concentration (EC50) in assay [1] and in assay [2] was below 5.46 nM throughout.
In the case of `[2H]C([2H])([2H])C(C)(OC(=O)N[C@@H]1C(=O)N2C[C@H](Oc3nccc4cc(OC(C)C)ccc34)C[C@H]2C(=O)N[C@]2(C(=O)NS(=O)(=O)C3CC3)C[C@H]2/C=C\CC[C@H](C)C[C@H]1C)C([2H])([2H])[2H]` [Compound 5152, 1,1,1,3,3,3-hexadeutero-2-methylpropan-2-yl((2R,6S,7R,9S,13aS,14aR,16aS,Z)-14a-((cyclopropylsulfonyl)carbamoyl)-2-((6-isopropoxyisoquinolin-1-yl)oxy)-7,9-dimethyl-5,16-dioxo-1,2,3,5,6,7,8,9,10,11,13a,14,14a,15,16,16a-hexadecahydrocyclopropa[e]pyrrolo[1,2-a][1,4]diazacyclopentadecin-6-yl)carbamate], the half-maximal effective concentration (EC50) in assay [1] and in assay [2] was 4.82 to 103 nM each time.
On to `[2H]C([2H])([2H])C(C)(OC(=O)N[C@@H]1C(=O)N2C[C@H](Oc3nccc4cc(OC(C)C)ccc34)C[C@H]2C(=O)N[C@]2(C(=O)NS(=O)(=O)C3CC3)C[C@H]2/C=C\CC[C@@H](C)C[C@H]1C)C([2H])([2H])[2H]` [Compound 5153, 1,1,1,3,3,3-hexadeutero-2-methylpropan-2-yl((2R,6S,7R,9R,13aS,14aR,16aS,Z)-14a-((cyclopropylsulfonyl)carbamoyl)-2-((6-isopropoxyisoquinolin-1-yl)oxy)-7,9-dimethyl-5,16-dioxo-1,2,3,5,6,7,8,9,10,11,13a,14,14a,15,16,16a-hexadecahydrocyclopropa[e]pyrrolo[1,2-a][1,4]diazacyclopentadecin-6-yl)carbamate], for which the EC50 in assay [1] and in assay [2] was below 5.46 nM throughout.
As for `[2H]C([2H])([2H])C(OC(=O)N[C@@H]1C(=O)N2C[C@H](Oc3nccc4cc(OC(C)C)ccc34)C[C@H]2C(=O)N[C@]2(C(=O)NS(=O)(=O)C3CC3)C[C@H]2/C=C\CC[C@H](C)C[C@H]1C)(C([2H])([2H])[2H])C([2H])([2H])[2H]` [Compound 5154, 1,1,1,3,3,3-hexadeutero-2-(trideuteromethyl)propan-2-yl((2R,6S,7R,9S,13aS,14aR,16aS,Z)-14a-((cyclopropylsulfonyl)carbamoyl)-2-((6-isopropoxyisoquinolin-1-yl)oxy)-7,9-dimethyl-5,16-dioxo-1,2,3,5,6,7,8,9,10,11,13a,14,14a,15,16,16a-hexadecahydrocyclopropa[e]pyrrolo[1,2-a][1,4]diazacyclopentadecin-6-yl)carbamate], the EC50 in assay [1] and in assay [2] was 4.82 to 103 nM throughout.
`[2H]C([2H])([2H])C(OC(=O)N[C@@H]1C(=O)N2C[C@H](Oc3nccc4cc(OC(C)C)ccc34)C[C@H]2C(=O)N[C@]2(C(=O)NS(=O)(=O)C3CC3)C[C@H]2/C=C\CC[C@@H](C)C[C@H]1C)(C([2H])([2H])[2H])C([2H])([2H])[2H]` [Compound 5155, 1,1,1,3,3,3-hexadeutero-2-(trideuteromethyl)propan-2-yl((2R,6S,7R,9R,13aS,14aR,16aS,Z)-14a-((cyclopropylsulfonyl)carbamoyl)-2-((6-isopropoxyisoquinolin-1-yl)oxy)-7,9-dimethyl-5,16-dioxo-1,2,3,5,6,7,8,9,10,11,13a,14,14a,15,16,16a-hexadecahydrocyclopropa[e]pyrrolo[1,2-a][1,4]diazacyclopentadecin-6-yl)carbamate]: the half-maximal effective concentration (EC50) in assay [1] and in assay [2] was below 5.46 nM throughout.
As for `CC(C)Oc1ccc2c(O[C@@H]3C[C@H]4C(=O)N[C@]5(C(=O)NS(=O)(=O)C6(C)CC6)C[C@H]5/C=C\CC[C@H](C)C[C@@H](C)[C@H](NC(=O)OC(C)(C)C)C(=O)N4C3)nccc2c1` [Compound 5156, tert-butyl ((2R,6S,7R,9S,13aS,14aR,16aS,Z)-2-((6-isopropoxyisoquinolin-1-yl)oxy)-7,9-dimethyl-14a-(((1-methylcyclopropyl)sulfonyl)carbamoyl)-5,16-dioxo-1,2,3,5,6,7,8,9,10,11,13a,14,14a,15,16,16a-hexadecahydrocyclopropa[e]pyrrolo[1,2-a][1,4]diazacyclopentadecin-6-yl)carbamate], the EC50 in assay [1] and in assay [2] was 4.82 to 103 nM throughout.
Regarding `CC(C)Oc1ccc2c(O[C@@H]3C[C@H]4C(=O)N[C@]5(C(=O)NS(=O)(=O)C6(C)CC6)C[C@H]5/C=C\CC[C@@H](C)C[C@@H](C)[C@H](NC(=O)OC(C)(C)C)C(=O)N4C3)nccc2c1` [Compound 5157, tert-butyl ((2R,6S,7R,9R,13aS,14aR,16aS,Z)-2-((6-isopropoxyisoquinolin-1-yl)oxy)-7,9-dimethyl-14a-(((1-methylcyclopropyl)sulfonyl)carbamoyl)-5,16-dioxo-1,2,3,5,6,7,8,9,10,11,13a,14,14a,15,16,16a-hexadecahydrocyclopropa[e]pyrrolo[1,2-a][1,4]diazacyclopentadecin-6-yl)carbamate], the EC50 in assay [1] and in assay [2] was below 5.46 nM throughout.
For the compound `CC(C)Oc1ccc2c(O[C@@H]3C[C@H]4C(=O)N[C@]5(C(=O)NS(=O)(=O)C6(C)CC6)C[C@H]5/C=C\CC[C@H](C)C[C@@H](C)[C@H](NC(=O)OC(C)(C)C(F)(F)F)C(=O)N4C3)nccc2c1` [Compound 5158, 1,1,1-trifluoro-2-methylpropan-2-yl((2R,6S,7R,9S,13aS,14aR,16aS,Z)-2-((6-isopropoxyisoquinolin-1-yl)oxy)-7,9-dimethyl-14a-(((1-methylcyclopropyl)sulfonyl)carbamoyl)-5,16-dioxo-1,2,3,5,6,7,8,9,10,11,13a,14,14a,15,16,16a-hexadecahydrocyclopropa[e]pyrrolo[1,2-a][1,4]diazacyclopentadecin-6-yl)carbamate], the EC50 in assay [1] was 4.82 to 103 nM; in assay [2], below 5.46 nM.
The matching figures for `CC(C)Oc1ccc2c(O[C@@H]3C[C@H]4C(=O)N[C@]5(C(=O)NS(=O)(=O)C6(C)CC6)C[C@H]5/C=C\CC[C@@H](C)C[C@@H](C)[C@H](NC(=O)OC(C)(C)C(F)(F)F)C(=O)N4C3)nccc2c1` [Compound 5159, 1,1,1-trifluoro-2-methylpropan-2-yl((2R,6S,7R,9R,13aS,14aR,16aS,Z)-2-((6-isopropoxyisoquinolin-1-yl)oxy)-7,9-dimethyl-14a-(((1-methylcyclopropyl)sulfonyl)carbamoyl)-5,16-dioxo-1,2,3,5,6,7,8,9,10,11,13a,14,14a,15,16,16a-hexadecahydrocyclopropa[e]pyrrolo[1,2-a][1,4]diazacyclopentadecin-6-yl)carbamate]: below 5.46 nM and below 5.46 nM.
